Results as given in patent US20100152188A1, “Novel Heterocyclic Compounds” (priority 2005, published 2010).
Read-outs that look alike come from different tables or passages of the source.

Columns and labels:
[1] = system: MDAMB-231/U 251; assay: Anti-cancer screen (MTT), MDAMB-231/U 251; type: cell-based; conditions: for CC50: read-out: MDAMB-231/U 251 LC50
Summary of the method: (§1)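 MTT read-out at 570 nm after 48 h compound exposure (five concentrations, 0.01–100 µM, triplicate). Percent growth calculated against untreated control and a T0 plate read at time of compound addition, giving GI50, TGI and LC50.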

[2] = system: HCT116; assay: Anti-cancer screen (MTT), HCT116; type: cell-based; conditions: Homo sapiens, HCT-116, 48 hours with compound, tested at 0.01-100 µM
Summary of the method: as §1

[3] = system: NCIH460, HCT116, MDAMB-231/U 251; assay: Anti-cancer screen, mean GI50 over the cell lines; type: cell-based; conditions: in µM
Summary of the method: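 Growth was scored by MTT absorbance at 570 nm relative to control wells and a pre-treatment T0 reading. Compounds were tested at five final concentrations (0.01–100 µM, triplicate) for 48 h on NCIH460, HCT116 and U251 cells, each plated at 5000 cells/well 24 h before dosing.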

[4] = system: NCIH460; assay: Anti-cancer screen (MTT), NCIH460; type: cell-based; conditions: Homo sapiens, NCI-H460, 48 hours with compound, tested at 0.01-100 µM
Summary of the method: as §1

[5] = system: HDAC; assay: HDAC inhibition; type: biochemical; conditions: for HDAC Inhibition 1 μM: compound at 1 μM; for HDAC Inhibition 10 μM: compound at 10 μM
[6] = 48 hours with compound, MTT, tested at 0.01-100 µM

Structure (SMILES)	CC50 ([1]; 48 h) [µM]	GI50 [1, 6] [µM]	IC (TGI) [1, 6] [µM]	GI50 [2] [µM]	IC (TGI) [2] [µM]	LC50 (concentration giving 50% net cell kill relative to T0) [2] [µM]	Mean GI50 [3]	GI50 [4] [µM]	IC (TGI) [4] [µM]	LC50 [4] [µM]	HDAC Inhibition 1 μM [5]	HDAC Inhibition 10 μM [5]	CC50 [1, 6] [µM]	CC50 ([2]; read-out: HCT116 LC50) [µM]
CN(O)C(=O)c1ccc(CNC(=O)OCc2cccs2)cc1 [Example 46, 2-Thienylmethyl(4-{[hydroxy(methyl)amino]carbonyl}benzyl)carbamate]	> 100	40	90	88	> 100	> 100	66	70	> 100	> 100	−4.01	−2.70	–	–
O=C(NCc1ccc(C(=O)Nc2nnc(C(F)(F)F)s2)cc1)OCc1nccs1 [Example 64, 1,3-Thiazol-2-ylmethyl[4-({[5-(trifluoromethyl)-1,3,4-thiadiazol-2-yl]amino}carbonyl)benzyl]carbamate]	> 100	> 100	> 100	> 100	> 100	> 100	>100	> 100	> 100	> 100	4.95	7.43	–	–
O=C(Cc1csc(NC(=O)OCC2COc3ccccc3O2)n1)NO (stereo not shown) [Example 5, 2,3-Dihydro-1,4-benzodioxin-2-ylmethyl{4-[2-(hydroxyamino)-2-oxoethyl]1,3-thiazol-2-yl}carbamate]	> 100	6	78	40	80	> 100	21.3	18	76	> 100	0.65	29.29	–	–
O=C(NCc1ccc(C(=O)N2CCN(c3ncccn3)CC2)cc1)OCc1nccs1 [Example 68, 1,3-thiazol-2-ylmethyl{4-[(4-pyrimidin-2-ylpiperazin-1-yl)carbonyl]benzyl}carbamate]	> 100	0.2	21	9	> 100	> 100	14.1	33	> 100	> 100	11.14	5.80	–	–
O=C(CCCCCNC(=O)Cc1csc(NC(=O)OCc2nc3ccccc3s2)n1)NO [Example 90, 1,3-Benzothiazol-2-ylmethyl[4-(2-{[6-(hydroxyamino)-6-oxohexyl]amino}-2-oxoethyl)-1,3-thiazol-2-yl]carbamate]	98	0.06	48	38	65	> 100	25.35	38	98	> 100	61.63	98.85	–	–
Nc1ccccc1NC(=O)Cc1csc(NC(=O)OCc2ccncc2)n1 [Example 24, Pyridin-4-ylmethyl(4-{2-[(2-aminophenyl)amino]-2-oxoethyl}-1,3-thiazol-2-yl)carbamate]	> 100	> 100	> 100	> 100	> 100	> 100	>100	> 100	> 100	> 100	1.34	3.17	–	–
O=C(CCCCCNC(=O)Cc1csc(NC(=O)OCc2cccnc2)n1)NO [Example 87, pyridin-3-ylmethyl[4-(2-{[6-(hydroxyamino)-6-oxohexyl]amino}-2-oxoethyl)-1,3-thiazol-2-yl]carbamate]	> 100	10	> 100	> 100	> 100	> 100	>100	> 100	> 100	> 100	42.24	87.80	–	–
CN(O)C(=O)c1ccc(CNC(=O)OCc2c(F)c(F)c(F)c(F)c2F)cc1 [Example 47, Tentafluorobenzyl(4-{[hydroxy(methyl)amino]carbonyl}benzyl)carbamate]	> 100	37	74	52	> 100	> 100	48.33	56	> 100	> 100	−5.89	−2.12	–	–
O=C(CCCNC(=O)Cc1csc(NC(=O)OCc2ccncc2)n1)NO [Example 97, Pyridin-4-ylmethyl[4-(2-{[4-(hydroxyamino)-4-oxobutyl]amino}-2-oxoethyl)-1,3-thiazol-2-yl]carbamate]	> 100	> 100	> 100	> 100	> 100	> 100	>100	100	> 100	> 100	5.02	5.80	–	–
Cc1ncsc1COC(=O)Nc1nc(CC(=O)NO)cs1 [Example 8, (4-Methyl-1,3-thiazol-5-yl)methyl{4-[2-(hydroxyamino)-2-oxoethyl]-1,3-thiazol-2-yl}carbamate]	–	0.5	> 100	> 100	> 100	–	>100	> 100	> 100	> 100	0.96	17.80	> 100	> 100
O=C(NCc1ccc(C(=O)Nc2nnc(C3CC3)s2)cc1)OCc1nc2ccccc2s1 [Example 67, 1,3-Benzothiazol-2-ylmethyl(4-{[(5-cyclopropyl-1,3,4-thiadiazol-2-yl)amino]carbonyl}benzyl)carbamate]	> 100	3.5	9	1.8	67	> 100	2.93	3.5	9.5	> 100	12.17	11.64	–	–
CC(=O)N(O)C(=O)Cc1csc(NC(=O)OCc2ccsc2)n1 [Example 77, 3-thienylmethyl(4-{2-[acetyl(hydroxy)amino]-2-oxoethyl}-1,3-thiazol-2-yl)carbamate]	> 100	6	65	60	> 100	> 100	39.7	53	> 100	> 100	7.7	14.8	–	–
O=C(NCc1ccc(C(=O)Nc2nnc(C3CC3)s2)cc1)OCc1c(F)cc(F)cc1F [Example 63, 2,4,6-Trifluorobenzyl(4-{[(5-cyclopropyl-1,3,4-thiadiazol-2-yl)amino]carbonyl}benzyl)carbamate]	> 100	0.5	5	16	> 100	> 100	5.52	0.05	6	> 100	–	0.17	–	–
O=C(Cc1csc(NC(=O)OCc2ccncc2)n1)NOCc1ccccc1 [Example 25, Pyridin-4-ylmethyl(4-{2-[(benzyloxy)amino]-2-oxoethyl}-1,3-thiazol-2-yl)carbamate]	> 100	85	> 100	65	> 100	> 100	80.67	92	> 100	> 100	−0.29	6.62	–	–
O=C(NCc1ccc(C(=O)Nc2nnc(C(F)(F)F)s2)cc1)OCc1cccs1 [Example 59, 2-Thienylmethyl[4-({[5-(trifluoromethyl)-1,3,4-thiadiazol-2-yl]amino}carbonyl)benzyl]carbamate]	> 100	74	> 100	> 100	> 100	> 100	63.5	53	95	> 100	14.41	–	–	–
O=C(Cc1csc(NC(=O)OCc2nc3ccccc3s2)n1)NO [Example 9, 1,3-Benzothiazol-2-ylmethyl{4-[2-(hydroxyamino)-2-oxoethyl]-1,3-thiazol-2-yl}carbamate]	> 100	38	> 100	48	> 100	> 100	53	73	> 100	> 100	17.52	46.21	–	–
